Reference: the supplement of paper PMC10702517
± gives the standard deviation.

Tests used:
[1] = chemical recovery from spiked human plasma; higher = better extraction; details: pooled human plasma
[2] = chemical recovery by SPE of plasma after PDMS sampling; higher = better extraction; details: pooled human plasma, extraction method: HLB SPE of plasma after PES
[3] = chemical recovery into PDMS from spiked human plasma; higher = better extraction; details: pooled human plasma, extraction method: PES with PDMS
[4] = extraction method: SPE only (HLB 96-well), PES comparison experiment
[5] = extraction method: PES+SPE (3 d PDMS equilibration then HLB SPE)
[6] = extraction method: SPE only (HLB 96-well)
[7] = extraction method: solvent precipitation (ACN + hexane)
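For chemical recovery by SPE of plasma after PDMS sampling in this document: over 400 spiked chemicals quantified by LC-HRMS or GC-HRMS via internal standard calibration, recovery relative to spike mix added to unspiked plasma extract to correct matrix effects.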

Row | chemical recovery [1, 7] [%] | SMILES | chemical recovery [1, 4] [%] | chemical recovery by SPE of plasma ([2]; equilibration time (d): 1) [%] | chemical recovery by SPE of plasma ([2]; equilibration time (d): 3) [%] | chemical recovery by SPE of plasma ([2]; equilibration time (d): 6) [%] | chemical recovery into PDMS ([3]; equilibration time (d): 6) [%] | chemical recovery [1, 5] [%] | chemical recovery [1, 6] [%] | chemical recovery into PDMS ([3]; equilibration time (d): 1) [%] | chemical recovery into PDMS ([3]; equilibration time (d): 3) [%]
1 | – | CN(Cc1nc2c(N)nc(N)nc2nc1O)c1ccc(C(=O)N[C@@H](CCC(=O)O)C(=O)O)cc1 [7-Hydroxymethotrexate] | 37.4 ± 4.5 | 38.5 ± 7.5 | 45.7 ± 5.5 | 40.3 ± 0.48 | 0.0138 ± 0.079 | – | – | – | –
2 | 71.1 ± 3 | NC(=O)N1c2ccccc2CC(O)c2ccccc21 (centres undefined) [10,11-Dihydro-10-hydroxycarbamazepine] | 51.2 ± 4.5 | 59.8 ± 8.4 | 60.8 ± 6 | 55.6 ± 7.7 | 1.45 ± 0.21 | 47.3 ± 4.9 | 49.1 ± 5.4 | 0.612 ± 0.1 | 1.31 ± 0.36
3 | – | C[C@]12CC(=O)[C@H]3[C@@H](CCC4=CC(=O)CC[C@@]43C)[C@@H]1CC[C@@H]2O [11-Ketotestosterone] | 50.5 ± 4.8 | 34.3 ± 3.9 | 30.6 ± 2.7 | 21.9 ± 3.6 | – | – | – | 4.7 ± 9.7 | –
4 | 71.1 ± 3.3 | COC[P+](c1ccccc1)(c1ccccc1)c1ccccc1 [(Methoxymethyl)triphenylphosphonium] | 48.7 ± 4.5 | 50.8 ± 5.7 | 50.4 ± 4.2 | 48.9 ± 5.7 | 0.00283 ± 0.0035 | 40.1 ± 4.1 | 36.1 ± 3.5 | – | 0.00031 ± 0.0019
5 | 71.9 ± 1.1 | O=c1c2ccccc2[nH]c2ccccc12 [Acridone] | 50.5 ± 5 | 57.8 ± 8.4 | 55.6 ± 1.6 | 44.9 ± 4.3 | 21.8 ± 3.6 | 62.8 ± 6 | 47.2 ± 3.6 | 11.4 ± 0.43 | 19.2 ± 3.2
6 | – | ClC1=C(Cl)C2(Cl)C3C4C=CC(C4)C3C1(Cl)C2(Cl)Cl (centres undefined) [Aldrin] | 18.4 ± 4 | 1.3 ± 0.86 | 1.34 ± 0.14 | 1.4 ± 0.28 | 99.8 ± 12 | – | 1.53 ± 0.48 | 84.1 ± 2.4 | 90.4 ± 12
7 | – | C=CCC1=C(C)C(OC(=O)C2C(C=C(C)C)C2(C)C)CC1=O (centres undefined) [Allethrin] | 34.6 ± 6.6 | – | 0.042 ± 0.073 | – | 37.9 ± 1.6 | – | – | 36 ± 1.6 | 38.6 ± 3.5
8 | – | CC(=O)OCC(=O)[C@@]12OC3(CCCC3)O[C@@H]1C[C@H]1[C@@H]3CCC4=CC(=O)C=C[C@]4(C)[C@@]3(F)[C@@H](O)C[C@@]12C [Amcinonide] | 39.5 ± 7.4 | 1.91 ± 3.3 | 1.48 ± 2.6 | – | 35.6 ± 2.7 | – | – | 35.6 ± 2.6 | 38.1 ± 2.4
9 | 106 ± 22 | CCCCc1oc2ccccc2c1C(=O)c1cc(I)c(OCCN(CC)CC)c(I)c1 [Amiodarone] | – | 0.357 ± 0.17 | 0.127 ± 0.05 | – | 0.0473 ± 0.062 | – | 37.9 ± 13 | 0.0444 ± 0.019 | 0.131 ± 0.037
10 | 77.5 ± 5.1 | CN(C)CCC=C1c2ccccc2CCc2ccccc21 [Amitriptyline] | 44.1 ± 5.6 | 0.152 ± 0.26 | 0.14 ± 0.12 | 0.0767 ± 0.067 | – | 0.236 ± 0.082 | 39.4 ± 10 | 0.00525 ± 0.0045 | 0.0228 ± 0.034
11 | 69.1 ± 2.4 | CC(C)(C#N)c1cc(Cn2cncn2)cc(C(C)(C)C#N)c1 [Anastrozole] | 47.9 ± 3.9 | 14.8 ± 1.9 | 9.48 ± 1.3 | 4.8 ± 0.57 | 41.8 ± 2.5 | 51.4 ± 5.5 | 44.4 ± 1.8 | 34.8 ± 2.8 | 39.8 ± 1.5
12 | – | Nc1ccc(/N=N/c2ccccc2)cc1 [Aniline Yellow] | 28.9 ± 4.3 | 6.65 ± 1.6 | 7.55 ± 0.93 | 5.19 ± 0.91 | 11.3 ± 3 | – | – | 12.3 ± 4.1 | 10.4 ± 4.8
13 | 64.8 ± 3.2 | CN1CCCC(n2nc(Cc3ccc(Cl)cc3)c3ccccc3c2=O)CC1 (centres undefined) [Azelastine] | 43.9 ± 6 | 1.03 ± 0.14 | 1.27 ± 0.31 | 0.461 ± 0.41 | 0.00617 ± 0.0099 | – | – | 0.00383 ± 0.0066 | –
14 | – | c1ccc(/N=N/c2ccccc2)cc1 [Azobenzene] | 8.55 ± 2.6 | 0.184 ± 0.32 | 0.401 ± 0.35 | 0.284 ± 0.25 | 27.9 ± 4 | – | – | 26.2 ± 3.9 | 28.4 ± 5.6
15 | 76.6 ± 5.2 | CO/C=C(/C(=O)O)c1ccccc1Oc1cc(Oc2ccccc2C#N)ncn1 [Azoxystrobin acid] | 51.7 ± 3.9 | 46.8 ± 4.8 | 50.4 ± 2 | 45.9 ± 2.3 | – | – | – | – | 0.00158 ± 0.0027
16 | 80.7 ± 8.4 | O=S(=O)(O)c1ccccc1 [Benzenesulfonic acid] | 8.52 ± 6 | 3.18 ± 3.5 | 1.77 ± 0.98 | 2.93 ± 1.1 | – | 1.83 ± 0.28 | 2.56 ± 1.3 | 0.00847 ± 0.015 | –
17 | 36 ± 1.5 | c1ccc2c(c1)-c1cccc3c1c-2cc1ccccc13 [Benzo(b)fluoranthene] | – | – | 3.78 ± 9.3 | – | 93.6 ± 18 | – | 0.807 ± 0.61 | – | 93.1 ± 4.8

Row | SMILES | chemical recovery [1, 7] [%] | chemical recovery [1, 4] [%] | chemical recovery by SPE of plasma ([2]; equilibration time (d): 1) [%] | chemical recovery by SPE of plasma ([2]; equilibration time (d): 3) [%] | chemical recovery by SPE of plasma ([2]; equilibration time (d): 6) [%] | chemical recovery into PDMS ([3]; equilibration time (d): 6) [%] | chemical recovery [1, 5] [%] | chemical recovery [1, 6] [%] | chemical recovery into PDMS ([3]; equilibration time (d): 1) [%] | chemical recovery into PDMS ([3]; equilibration time (d): 3) [%]
18 | C/C(=N\C#N)N(C)Cc1ccc(Cl)nc1 [Acetamiprid] | 75 ± 2.6 | 56.8 ± 6.8 | 46.9 ± 3.9 | 42.3 ± 4.8 | 33.6 ± 4 | 17.2 ± 2.9 | 51.9 ± 4.8 | 40.7 ± 3 | 9.86 ± 0.62 | 15.7 ± 2.8
19 | CCNc1nc(NC(C)C)nc(SC)n1 [Ametryn] | 72.1 ± 3.1 | 44.1 ± 4.6 | 24.3 ± 4.5 | 9.36 ± 2 | 4.74 ± 0.84 | 23.9 ± 3.2 | – | 41.6 ± 3.1 | 13.2 ± 4.9 | 20.6 ± 7.4
20 | CCNc1nc(Cl)nc(NC(C)C)n1 [Atrazine] | 62.9 ± 5.5 | 50.6 ± 6.8 | 6.06 ± 0.65 | 4.12 ± 0.74 | 2.39 ± 0.2 | 39.4 ± 0.96 | 43.7 ± 5.2 | 41.5 ± 2.1 | 34.5 ± 1.7 | 39.1 ± 2.9
21 | CO/C=C(/C(=O)OC)c1ccccc1Oc1cc(Oc2ccccc2C#N)ncn1 [Azoxystrobin] | 75.6 ± 3.4 | 51.9 ± 7.1 | 5.12 ± 0.84 | 3.88 ± 0.44 | 2.15 ± 0.22 | 43 ± 0.52 | 46.6 ± 5.9 | 46.7 ± 1.1 | 40.1 ± 1.9 | 43.9 ± 3.2
22 | Brc1ccc(Oc2cc(Br)c(Br)cc2Br)c(Br)c1 [BDE99] | 4.89 ± 0.2 | – | 1.13 ± 1.1 | – | – | 92.4 ± 7.2 | 53.9 ± 4.6 | 1.63 ± 0.65 | – | 99.1 ± 13
23 | Brc1ccc(Oc2c(Br)cc(Br)cc2Br)c(Br)c1 [BDE100] | 7.72 ± 0.68 | – | 2.2 ± 2 | 1.42 ± 0.25 | 0.324 ± 0.56 | 95.9 ± 6 | 67.4 ± 0.92 | 3.57 ± 1.4 | – | 99.1 ± 13
24 | Brc1cc(Br)c(Oc2cc(Br)c(Br)cc2Br)cc1Br [BDE153] | 44.6 ± 2.3 | – | 2.71 ± 2.5 | 2.62 ± 0.49 | 1 ± 0.88 | 71.7 ± 9.9 | – | 6.21 ± 3.4 | – | 68.9 ± 6.3
25 | Brc1cc(Br)c(Oc2cc(Br)c(Br)cc2Br)c(Br)c1 [BDE154] | 28.8 ± 2.3 | – | 1.62 ± 1.4 | 1.94 ± 0.88 | – | 66.7 ± 20 | – | – | – | 67.2 ± 9.8
26 | CNC(=O)Oc1cccc2c1OC(C)(C)O2 [Bendiocarb] | 0.0898 ± 0.13 | 45.4 ± 4.6 | 20.4 ± 0.99 | 26.5 ± 2.1 | 21.6 ± 1.7 | 21.4 ± 0.87 | 35.9 ± 5.4 | 45.8 ± 1.5 | 25.2 ± 0.81 | 20.4 ± 0.2
